Assay results taken from ChEMBL document CHEMBL5143641, “Expanding the Chemical Diversity of Fasamycin Via Genome Mining and Biocatalysis” (2022).

What was measured:
Assay type in all cases: functional
Bacillus subtilis = assay: Antimicrobial activity against Bacillus subtilis ATCC 23857 assessed as inhibition of microbial growth incubated for 16 hrs under shaking condition by microdilution assay
Staphylococcus aureus = assay: Antimicrobial activity against Staphylococcus aureus ATCC 51650 assessed as inhibition of microbial growth incubated for 16 hrs under shaking condition by microdilution assay
Escherichia coli = assay: Antimicrobial activity against Escherichia coli ATCC 25922 assessed as inhibition of microbial growth incubated for 16 hrs under shaking condition by microdilution assay
Candida albicans = assay: Antimicrobial activity against Candida albicans ATCC 10231 assessed as inhibition of microbial growth incubated for 16 hrs under shaking condition by microdilution assay

Row | SMILES | MIC (Bacillus subtilis) [µg/mL] | MIC (Staphylococcus aureus) [µg/mL] | MIC (Escherichia coli) [µg/mL] | MIC (Candida albicans) [µg/mL]
1 | COc1cc(C)c(-c2cc(OC)cc3cc4c(c(O)c23)C(=O)c2c(O)cc(O)cc2C4(C)C)c(O)c1 | 12.5 | 6.3 | > 100 | > 100
2 | COc1cc(O)c(-c2cc(O)cc3cc4c(c(O)c23)C(=O)c2c(O)cc(O)cc2C4(C)C)c(C)c1Cl | 6.3 | 6.3 | > 100 | > 100
3 | COc1cc(C)c(-c2cc(O)cc3cc4c(c(O)c23)C(=O)c2c(cc(O)c(Cl)c2O)C4(C)C)c(O)c1 | 12.5 | 12.5 | > 100 | > 100
4 | COc1cc(C)c(-c2cc(OC)cc3cc4c(c(O)c23)C(=O)c2c(O)cc(OC)cc2C4(C)C)c(O)c1 | > 100 | > 100 | > 100 | > 100
5 | COc1cc(C)c(-c2cc(O)cc3cc4c(c(O)c23)C(=O)c2c(cc(OC)c(Br)c2O)C4(C)C)c(O)c1 | 3.1 | 3.1 | > 100 | > 100
6 | COc1cc(O)c(-c2cc(O)cc3cc4c(c(O)c23)C(=O)c2c(O)cc(O)cc2C4(C)C)c(C)c1Br | 3.1 | 3.1 | > 100 | > 100

Stronger by MIC (Bacillus subtilis), values ahead:

Row | MIC (Bacillus subtilis) [µg/mL] | MIC (Staphylococcus aureus) [µg/mL] | MIC (Escherichia coli) [µg/mL] | MIC (Candida albicans) [µg/mL] | SMILES
7 | 1.6 | 3.1 | > 100 | > 100 | COc1cc(C)c(-c2cc(O)cc3cc4c(c(O)c23)C(=O)c2c(cc(OC)c(Cl)c2O)C4(C)C)c(O)c1
8 | 1.6 | 3.1 | > 100 | > 100 | COc1cc2c(c(O)c1Cl)C(=O)c1c(cc3cc(O)cc(-c4c(O)cc(OC)c(Br)c4C)c3c1O)C2(C)C
9 | 1.6 | 3.1 | > 100 | > 100 | COc1cc(O)c2c(c1)C(C)(C)c1cc3cc(O)cc(-c4c(O)cc(OC)c(Cl)c4C)c3c(O)c1C2=O
10 | 1.6 | 1.6 | > 100 | > 100 | COc1cc(O)c(-c2cc(O)c(Br)c3cc4c(c(O)c23)C(=O)c2c(O)cc(O)cc2C4(C)C)c(C)c1Br
11 | 1.6 | 3.1 | > 100 | > 100 | COc1cc(C)c(-c2cc(O)cc3cc4c(c(O)c23)C(=O)c2c(O)cc(OC)cc2C4(C)C)c(O)c1
12 | 1.6 | 3.1 | > 100 | > 100 | COc1cc(O)c2c(c1)C(C)(C)c1cc3cc(O)cc(-c4c(O)cc(OC)c(Br)c4C)c3c(O)c1C2=O
13 | 0.8 | 1.6 | – | – | NC[C@H]1O[C@H](O[C@H]2[C@H](O)[C@@H](O[C@H]3O[C@H](CO)[C@@H](O)[C@H](N)[C@H]3O)[C@H](N)C[C@@H]2N)[C@H](O)[C@@H](O)[C@@H]1O [KANAMYCIN]
